Results: ChEMBL document CHEMBL1821657, “Tritoniopsins A-D, cladiellane-based diterpenes from the South China Sea nudibranch Tritoniopsis elegans and its prey Cladiella krempfi” (J Nat Prod, 2011)
The source made the active and inactive calls. The rule behind the calls is not given here.

Columns and labels:
[1] = tested on: C6; assay: Cytotoxicity against rat C6 cells assessed as cell growth inhibition after 48 hrs; assay type: functional, cell-based
[2] = tested on: H9c2; assay: Cytotoxicity against rat H9c2 cells assessed as cell growth inhibition after 48 hrs; assay type: cell-based; settings: H9c2, 48 h
[3] = tested on: HeLa; assay: Cytotoxicity against human HeLa cells assessed as cell growth inhibition after 48 hrs; assay type: functional, cell-based
[4] = tested on: Caco-2; assay: Cytotoxicity against human Caco2 cells assessed as cell growth inhibition after 48 hrs; assay type: functional, cell-based; settings: Caco-2, 48 h
[5] = tested on: 3T3-L1; assay: Cytotoxicity against mouse 3T3L1 cells assessed as cell growth inhibition after 48 hrs; assay type: cell-based; settings: 3T3-L1, 48 h

Compound: C=C1C[C@H]2O[C@H]([C@@H]3[C@@H]4C[C@@H](OC[C@@H]4C)[C@](C)(O)[C@@H]32)[C@](C)(OC(=O)CCC)CC[C@@H]1OO [TRITONIOPSIN B]
- growth inhibition (GI) [1]: inactive
- IC50 [2]: 40 µM
- growth inhibition (GI) [3]: inactive
- IC50 [4]: 40 µM
- IC50 [5]: 40 µM
